Measurements taken from PubChem BioAssay (NCI).
Values joined by “and” are separate entries in the source; they are usually repeats but may differ in a detail not shown here. Equal values may be shown once.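 Protocol summary: plate cells (96-well), add compound at 5 concentrations, incubate 48 h, interpolate endpoints linearly. GI50 = concentration required for 50% inhibition of growth. TGI marks complete inhibition of growth.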 Where a SMILES comes first, the peptide text is derived from it. The star is where a group is joined. Fmoc = O=C(OCC1c2ccccc2-c2ccccc21)*; Boc = CC(C)(C)OC(=O)*; OtBu = CC(C)(C)O*

Assays:
Test in all cases: growth of human tumour cells (NCI), 48 h
KM12 colon = system: KM12 colon
M14 melanoma = system: M14 melanoma
OVCAR-5 ovarian = system: OVCAR-5 ovarian
SK-OV-3 ovarian = system: SK-OV-3 ovarian
SF-268 CNS = system: SF-268 CNS
DU-145 prostate = system: DU-145 prostate
HOP-92 NSCLC = system: HOP-92 NSCLC
SR leukemia = system: SR leukemia
HL-60(TB) leukemia = system: HL-60(TB) leukemia
MDA-MB-435 = system: MDA-MB-435
NCI-H23 lung = system: NCI-H23 lung
786-0 renal = system: 786-0 renal
HCT-116 colon = system: HCT-116 colon
LOX IMVI melanoma = system: LOX IMVI melanoma
A498 renal = system: A498 renal
SNB-19 CNS = system: SNB-19 CNS
SF-539 CNS = system: SF-539 CNS
SK-MEL-5 melanoma = system: SK-MEL-5 melanoma
MOLT-4 leukemia = system: MOLT-4 leukemia
EKVX NSCLC = system: EKVX NSCLC
SW-620 colon = system: SW-620 colon
NCI-H460 lung = system: NCI-H460 lung
HT29 colon = system: HT29 colon
ACHN renal = system: ACHN renal
SNB-75 CNS = system: SNB-75 CNS
MDA-MB-231 breast = system: MDA-MB-231 breast
RXF 393 renal = system: RXF 393 renal
MALME-3M melanoma = system: MALME-3M melanoma
MDA-N = system: MDA-N
CAKI-1 renal = system: CAKI-1 renal
MCF7 breast = system: MCF7 breast
U251 CNS = system: U251 CNS
NCI-H522 lung = system: NCI-H522 lung
SK-MEL-2 melanoma = system: SK-MEL-2 melanoma
OVCAR-8 ovarian = system: OVCAR-8 ovarian
HCT-15 colon = system: HCT-15 colon
BT-549 breast = system: BT-549 breast
NCI-H226 lung = system: NCI-H226 lung
RPMI-8226 leukemia = system: RPMI-8226 leukemia
A549 NSCLC = system: A549 NSCLC
OVCAR-4 ovarian = system: OVCAR-4 ovarian
HOP-62 NSCLC = system: HOP-62 NSCLC
T-47D breast = system: T-47D breast
HS 578T breast = system: HS 578T breast
IGROV1 ovarian = system: IGROV1 ovarian
SN12C renal = system: SN12C renal
SK-MEL-28 melanoma = system: SK-MEL-28 melanoma
UO-31 renal = system: UO-31 renal
SF-295 CNS = system: SF-295 CNS
PC-3 prostate = system: PC-3 prostate
NCI/ADR-RES ovarian = system: NCI/ADR-RES ovarian
OVCAR-3 ovarian = system: OVCAR-3 ovarian
K-562 leukemia = system: K-562 leukemia
COLO 205 colon = system: COLO 205 colon
UACC-62 melanoma = system: UACC-62 melanoma
TK-10 renal = system: TK-10 renal
CCRF-CEM leukemia = system: CCRF-CEM leukemia
UACC-257 melanoma = system: UACC-257 melanoma
HCC-2998 colon = system: HCC-2998 colon

## Cc1ccc(C2(C)CC/C(=N/N=C3/CCC(C)(c4ccc(C)c(C)c4)c4cc(C)c(C)cc43)c3cc(C)c(C)cc32)cc1C (stereo not given)
KM12 colon
  TGI: > 100 µM
M14 melanoma
  TGI: > 100 µM
OVCAR-5 ovarian
  TGI: > 100 µM
SK-OV-3 ovarian
  TGI: > 100 µM
SF-268 CNS
  TGI: > 100 µM
DU-145 prostate
  TGI: > 100 µM
HOP-92 NSCLC
  TGI: > 100 µM
SR leukemia
  TGI: > 100 µM
HL-60(TB) leukemia
  TGI: > 100 µM
MDA-MB-435
  TGI: > 100 µM
NCI-H23 lung
  TGI: > 100 µM
786-0 renal
  TGI: > 100 µM
HCT-116 colon
  TGI: > 100 µM
LOX IMVI melanoma
  TGI: > 100 µM
A498 renal
  TGI: > 100 µM
SNB-19 CNS
  TGI: > 100 µM
SF-539 CNS
  TGI: > 100 µM
SK-MEL-5 melanoma
  TGI: > 100 µM
MOLT-4 leukemia
  TGI: > 100 µM
EKVX NSCLC
  TGI: > 100 µM
SW-620 colon
  TGI: > 100 µM
NCI-H460 lung
  TGI: > 100 µM
HT29 colon
  TGI: > 100 µM
ACHN renal
  TGI: > 100 µM
SNB-75 CNS
  TGI: > 100 µM
MDA-MB-231 breast
  TGI: > 100 µM
RXF 393 renal
  TGI: > 100 µM
MALME-3M melanoma
  TGI: > 100 µM
MDA-N
  TGI: > 100 µM
CAKI-1 renal
  TGI: > 100 µM
MCF7 breast
  TGI: > 100 µM
U251 CNS
  TGI: > 100 µM
NCI-H522 lung
  TGI: > 100 µM
SK-MEL-2 melanoma
  TGI: > 100 µM
OVCAR-8 ovarian
  TGI: > 100 µM
HCT-15 colon
  TGI: > 100 µM
BT-549 breast
  TGI: > 100 µM
NCI-H226 lung
  TGI: > 100 µM
RPMI-8226 leukemia
  TGI: > 100 µM
A549 NSCLC
  TGI: > 100 µM
OVCAR-4 ovarian
  TGI: > 100 µM
HOP-62 NSCLC
  TGI: > 100 µM
T-47D breast
  TGI: > 100 µM
HS 578T breast
  TGI: > 100 µM
IGROV1 ovarian
  TGI: > 100 µM
SN12C renal
  TGI: > 100 µM
SK-MEL-28 melanoma
  TGI: > 100 µM
UO-31 renal
  TGI: > 100 µM
SF-295 CNS
  TGI: > 100 µM
PC-3 prostate
  TGI: > 100 µM
NCI/ADR-RES ovarian
  TGI: > 100 µM
OVCAR-3 ovarian
  TGI: > 100 µM
K-562 leukemia
  TGI: > 100 µM
COLO 205 colon
  TGI: > 100 µM
UACC-62 melanoma
  TGI: > 100 µM
TK-10 renal
  TGI: > 100 µM

## CC(C)(C)OC(=O)CCC(NC(=O)OCC1c2ccccc2-c2ccccc21)C(=O)NC(Cc1c[nH]c2ccccc12)C(=O)NC(CCCCNC(=O)OC(C)(C)C)C(=O)N1CCCC1C(=O)NCC(N)=O (stereo not given) (Fmoc-E(OtBu)WK(Boc)PG-NH2; configuration not given here)
KM12 colon
  GI50: 16.2 µM and 35.9 µM
  TGI: 33.1 µM and > 100 µM
M14 melanoma
  TGI: 90.5 µM and > 100 µM
OVCAR-5 ovarian
  GI50: 45.6 µM and > 100 µM
  TGI: > 100 µM
SK-OV-3 ovarian
  TGI: > 100 µM and 93.9 µM
SF-268 CNS
  GI50: 21.5 µM and 44.7 µM
  TGI: 37.2 µM and > 100 µM
DU-145 prostate
  GI50: 16.1 µM and > 100 µM
  TGI: 29.6 µM and > 100 µM
HOP-92 NSCLC
  TGI: 31.4 µM and 35.7 µM
CCRF-CEM leukemia
  GI50: 67.3 µM and 31.5 µM
  TGI: > 100 µM and 73.7 µM
SR leukemia
  TGI: 52.7 µM and > 100 µM
HL-60(TB) leukemia
  GI50: 3.8 µM and 33.5 µM
  TGI: > 100 µM
MDA-MB-435
  GI50: 18 µM and 42.7 µM
  TGI: 31.9 µM and > 100 µM
NCI-H23 lung
  GI50: 14.2 µM and 32.7 µM
  TGI: 27.2 µM and > 100 µM
UACC-257 melanoma
  GI50: 40.4 µM and 94.9 µM
  TGI: > 100 µM
786-0 renal
  TGI: 31.3 µM and 34.9 µM
HCT-116 colon
  GI50: 18.3 µM and 48.1 µM
  TGI: 32.2 µM and > 100 µM
LOX IMVI melanoma
  TGI: 24.5 µM and 44.7 µM
SNB-19 CNS
  TGI: 72.9 µM and 40.6 µM
SF-539 CNS
  TGI: > 100 µM
SK-MEL-5 melanoma
  TGI: 29.7 µM and > 100 µM
MOLT-4 leukemia
  TGI: 61.7 µM and 81.7 µM
EKVX NSCLC
  GI50: 17.9 µM and > 100 µM
  TGI: 34.8 µM and > 100 µM
SW-620 colon
  GI50: 19 µM and 46.9 µM
  TGI: 33.6 µM and > 100 µM
NCI-H460 lung
  TGI: 30.4 µM and 68.9 µM
HT29 colon
  TGI: > 100 µM
ACHN renal
  TGI: 30 µM and 35 µM
SNB-75 CNS
  TGI: 52.1 µM and 29.9 µM
MDA-MB-231 breast
  TGI: 25.2 µM and 28.9 µM
RXF 393 renal
  TGI: 28.3 µM and 50.4 µM
MALME-3M melanoma
  TGI: 33.9 µM and 78.9 µM
MDA-N
  TGI: 31.6 µM and > 100 µM
MCF7 breast
  TGI: > 100 µM
U251 CNS
  TGI: 31.1 µM and 31 µM
NCI-H522 lung
  TGI: 4.16 µM
SK-MEL-2 melanoma
  TGI: 39.2 µM and 33.5 µM
OVCAR-8 ovarian
  TGI: 33.4 µM and > 100 µM
HCT-15 colon
  GI50: 12.5 µM and 73.9 µM
  TGI: 24.9 µM and > 100 µM
BT-549 breast
  TGI: 29.5 µM and 38.3 µM
NCI-H226 lung
  GI50: 15.3 µM and 78.8 µM
  TGI: 32.5 µM and > 100 µM
RPMI-8226 leukemia
  TGI: 35.6 µM and > 100 µM
A549 NSCLC
  GI50: 17.6 µM and > 100 µM
  TGI: 31.5 µM and > 100 µM
OVCAR-4 ovarian
  TGI: 25.5 µM and 31.2 µM
HOP-62 NSCLC
  GI50: 18 µM and 42.2 µM
  TGI: 31.8 µM and > 100 µM
HCC-2998 colon
  TGI: > 100 µM
T-47D breast
  TGI: > 100 µM
HS 578T breast
  TGI: 59.3 µM and 76.1 µM
IGROV1 ovarian
  TGI: 29.5 µM and > 100 µM
SN12C renal
  GI50: 18.3 µM and 67.4 µM
  TGI: 32.2 µM and > 100 µM
SK-MEL-28 melanoma
  TGI: > 100 µM
UO-31 renal
  GI50: 3.85 µM and 14.4 µM
  TGI: 14.7 µM and 28.1 µM
SF-295 CNS
  TGI: > 100 µM
PC-3 prostate
  GI50: 16.4 µM and > 100 µM
  TGI: 29.9 µM and > 100 µM
NCI/ADR-RES ovarian
  GI50: 16.9 µM and 68.5 µM
  TGI: 30.6 µM and > 100 µM
OVCAR-3 ovarian
  TGI: 37.4 µM and 51 µM
K-562 leukemia
  TGI: > 100 µM
COLO 205 colon
  GI50: 17.1 µM and 41.9 µM
  TGI: 32.7 µM and > 100 µM
UACC-62 melanoma
  TGI: 28.2 µM and 39.9 µM
TK-10 renal
  GI50: 36.5 µM and > 100 µM
  TGI: > 100 µM
